Measurements from ChEMBL document CHEMBL5209897, “Affinity Phenotypic Cellular Literature for EUbOPEN Chemogenomics Library wave 3” (2023).
pEC50, pIC50: −log10 of the molar value.

Assays:
[1] = target: Mitogen-activated protein kinase 14 (Homo sapiens, UniProt Q16539); experiment: Affinity Phenotypic Cellular interaction (TNF-a release (stimmulated by LPS in human WB)) EUB0000711a MAPK14; format: functional; set-up: mode of action Negative control for SR318, recommended concentration 1 uM
[2] = target: T1, Mitogen-activated protein kinase 11 (Homo sapiens, UniProt Q15759); experiment: Affinity Phenotypic Cellular interaction (TNF-a release (stimmulated by LPS in human WB)) EUB0000711a MAPK11; format: functional; set-up: mode of action Negative control for SR318, recommended concentration 1 uM
[3] = target: T1, Mitogen-activated protein kinase 11; experiment: Affinity Phenotypic Cellular interaction (TNF-a release (stimmulated by LPS in human WB)) EUB0000718a MAPK11; format: functional; set-up: mode of action Inhibitor, recommended concentration 1 uM
Presenilin-1 [4] = target: T2, Presenilin-1 (Homo sapiens, UniProt P49768); experiment: Affinity Phenotypic Cellular interaction (Abeta40 inhibition assay (in SH-SY5Y (SP4CT) cells; APP as target)) EUB0000741a PSEN1; format: cell-based; set-up: mode of action Negative control for MRK-560, recommended concentration 100 nM
[5] = target: T3, Calcium/calmodulin-dependent protein kinase kinase 2 (Homo sapiens, UniProt Q96RR4); experiment: Affinity Phenotypic Cellular interaction (Western Blot (downstream phosphorylation of AMPK in C4-2 cells)) EUB0000168b CAMKK2; format: cell-based; set-up: mode of action Negative control for SGC-CAMKK2-1 (UNC-YL-36), recommended concentration 1 uM
[6] = Affinity Phenotypic Cellular interaction (Proliferation assay (CellTiter-Glo ATP assay in human lung H1299 cells)) EUB0000752a NDUFS2
[7] = target: T3, Calcium/calmodulin-dependent protein kinase kinase 2; experiment: Affinity Phenotypic Cellular interaction (Western Blot (downstream phosphorylation of AMPK in C4-2 cells)) EUB0000167b CAMKK2; format: cell-based; set-up: mode of action Inhibitor, recommended concentration 1 uM
[8] = target: B-cell lymphoma 6 protein (Homo sapiens, UniProt P41182); experiment: Affinity Phenotypic Cellular interaction (Inhibition of BCL6 co-repressor (BCoR, M2H assay/Bright-Glo luciferase assay in HEK293T cells, Promega)) EUB0000316c BCL6; format: cell-based; set-up: mode of action Inhibitor, recommended concentration 1 uM
TGF-beta receptor type-1 = TGF-beta receptor type-1 (Homo sapiens, UniProt P36897); experiment: Affinity Phenotypic Cellular interaction (Western blot (inhibition of SMAD2/3 phosphorylation)) EUB0000710a TGFBR1
Activin receptor type-1B = Activin receptor type-1B (Homo sapiens, UniProt P36896); experiment: Affinity Phenotypic Cellular interaction (Western blot (inhibition of SMAD2/3 phosphorylation)) EUB0000710a ACVR1B
Presenilin-1 [9] = target: T2, Presenilin-1; experiment: Affinity Phenotypic Cellular interaction (Abeta42 inhibition assay (electrochemiluminescent detection of peptides secreted by SH-SY5Y cells stably overexpressing the APP C-terminal fragment SPA4CT)) EUB0000739a PSEN1; set-up: mode of action Negative control for GSM1, recommended concentration 1 uM
Presenilin-1 [10] = target: T2, Presenilin-1; experiment: Affinity Phenotypic Cellular interaction (Abeta40 inhibition assay (in SH-SY5Y (SP4CT) cells; APP as target)) EUB0000750a PSEN1; format: cell-based; set-up: mode of action Inhibitor, recommended concentration 100 nM
[11] = target: Ribosomal protein S6 kinase alpha-1 (Homo sapiens) (UniProt Q15418); experiment: Affinity Phenotypic Cellular interaction (Cellular mechanistic pACC assay using IMR-32 neuroblastoma cells) EUB0000707a RPS6KA1
[12] = target: 5'-AMP-activated protein kinase catalytic subunit alpha-1 (Homo sapiens, UniProt Q13131); experiment: Affinity Phenotypic Cellular interaction (Cellular mechanistic pACC assay using IMR-32 neuroblastoma cells) EUB0000707a PRKAA1; format: functional; set-up: mode of action Negative control for BAY-3827, recommended concentration 100 nM
[13] = target: T1, Mitogen-activated protein kinase 11
[14] = target: Methionine aminopeptidase 2 (Homo sapiens, UniProt P50579); experiment: Affinity Phenotypic Cellular interaction (Western Blot (acumulation of Nmet14-3-3gamma in HUVEC cells)) EUB0000303b METAP2; format: cell-based; set-up: mode of action Inhibitor, recommended concentration 1 uM
Sequence of Methionine aminopeptidase 2 (P50579 whole entry): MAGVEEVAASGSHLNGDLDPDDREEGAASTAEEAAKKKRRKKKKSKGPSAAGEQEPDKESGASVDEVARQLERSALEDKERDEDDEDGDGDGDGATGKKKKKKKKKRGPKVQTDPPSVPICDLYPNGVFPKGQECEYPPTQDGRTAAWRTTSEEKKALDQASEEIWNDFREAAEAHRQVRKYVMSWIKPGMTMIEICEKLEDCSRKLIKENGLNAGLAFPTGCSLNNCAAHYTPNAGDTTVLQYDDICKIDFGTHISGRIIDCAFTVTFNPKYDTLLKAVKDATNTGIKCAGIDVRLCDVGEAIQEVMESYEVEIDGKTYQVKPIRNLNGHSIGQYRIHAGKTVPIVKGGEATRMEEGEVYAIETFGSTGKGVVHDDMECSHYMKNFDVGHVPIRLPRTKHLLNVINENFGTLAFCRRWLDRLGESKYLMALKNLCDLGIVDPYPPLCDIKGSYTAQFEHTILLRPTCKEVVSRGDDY

T1 sequence (Q15759 whole entry): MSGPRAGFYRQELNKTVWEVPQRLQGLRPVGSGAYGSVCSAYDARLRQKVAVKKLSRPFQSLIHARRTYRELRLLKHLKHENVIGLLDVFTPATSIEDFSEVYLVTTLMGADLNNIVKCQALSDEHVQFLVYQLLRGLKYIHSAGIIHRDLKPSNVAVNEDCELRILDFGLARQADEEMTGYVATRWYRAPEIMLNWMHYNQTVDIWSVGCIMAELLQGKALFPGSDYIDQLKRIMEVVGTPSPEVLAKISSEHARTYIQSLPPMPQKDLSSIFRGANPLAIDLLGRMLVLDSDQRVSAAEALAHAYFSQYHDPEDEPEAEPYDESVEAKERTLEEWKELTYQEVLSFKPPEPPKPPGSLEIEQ
T3 sequence (Q96RR4 whole entry): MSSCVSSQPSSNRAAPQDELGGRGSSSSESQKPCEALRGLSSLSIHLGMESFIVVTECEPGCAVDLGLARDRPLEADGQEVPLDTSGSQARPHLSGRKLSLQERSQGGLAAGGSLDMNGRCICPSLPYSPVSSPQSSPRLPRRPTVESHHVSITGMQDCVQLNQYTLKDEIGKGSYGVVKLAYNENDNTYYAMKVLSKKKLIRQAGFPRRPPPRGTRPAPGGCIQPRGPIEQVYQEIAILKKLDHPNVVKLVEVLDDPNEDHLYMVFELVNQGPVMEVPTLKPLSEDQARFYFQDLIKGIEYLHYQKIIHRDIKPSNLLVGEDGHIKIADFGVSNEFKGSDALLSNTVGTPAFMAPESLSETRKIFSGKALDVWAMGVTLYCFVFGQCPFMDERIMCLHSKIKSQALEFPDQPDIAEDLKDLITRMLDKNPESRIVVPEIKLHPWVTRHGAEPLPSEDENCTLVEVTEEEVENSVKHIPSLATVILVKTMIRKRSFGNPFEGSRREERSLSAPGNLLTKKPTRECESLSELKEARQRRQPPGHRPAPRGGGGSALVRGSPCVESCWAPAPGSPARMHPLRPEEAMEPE
Sequence of 5'-AMP-activated protein kinase catalytic subunit alpha-1 (Q13131 whole entry): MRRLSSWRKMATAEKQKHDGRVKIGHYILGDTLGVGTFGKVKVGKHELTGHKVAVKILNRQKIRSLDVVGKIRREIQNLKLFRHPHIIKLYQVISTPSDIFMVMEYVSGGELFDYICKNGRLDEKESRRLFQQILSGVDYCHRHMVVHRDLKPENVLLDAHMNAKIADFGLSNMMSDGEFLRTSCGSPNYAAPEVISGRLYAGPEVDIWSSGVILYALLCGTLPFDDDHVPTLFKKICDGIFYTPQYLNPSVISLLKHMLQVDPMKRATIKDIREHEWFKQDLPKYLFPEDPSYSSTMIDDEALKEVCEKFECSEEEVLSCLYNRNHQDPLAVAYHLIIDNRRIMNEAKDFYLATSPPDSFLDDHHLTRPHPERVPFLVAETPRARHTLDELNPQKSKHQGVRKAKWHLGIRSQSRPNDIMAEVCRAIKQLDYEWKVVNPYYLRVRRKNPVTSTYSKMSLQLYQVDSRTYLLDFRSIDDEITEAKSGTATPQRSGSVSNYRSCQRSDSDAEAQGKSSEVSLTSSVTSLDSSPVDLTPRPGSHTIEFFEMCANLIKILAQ
Sequence of Mitogen-activated protein kinase 14 (Q16539 whole entry): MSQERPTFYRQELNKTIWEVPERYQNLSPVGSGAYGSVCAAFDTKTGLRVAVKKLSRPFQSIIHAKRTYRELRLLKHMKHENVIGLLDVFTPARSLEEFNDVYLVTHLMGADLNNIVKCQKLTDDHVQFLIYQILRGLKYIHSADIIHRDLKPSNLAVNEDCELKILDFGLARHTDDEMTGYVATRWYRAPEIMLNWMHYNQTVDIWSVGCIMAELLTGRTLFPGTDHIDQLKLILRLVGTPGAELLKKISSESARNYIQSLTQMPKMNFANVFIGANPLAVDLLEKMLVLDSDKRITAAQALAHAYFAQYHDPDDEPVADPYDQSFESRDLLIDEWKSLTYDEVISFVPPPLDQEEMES
Sequence of Ribosomal protein S6 kinase alpha-1 (Homo sapiens) (Q15418 whole entry, looked up): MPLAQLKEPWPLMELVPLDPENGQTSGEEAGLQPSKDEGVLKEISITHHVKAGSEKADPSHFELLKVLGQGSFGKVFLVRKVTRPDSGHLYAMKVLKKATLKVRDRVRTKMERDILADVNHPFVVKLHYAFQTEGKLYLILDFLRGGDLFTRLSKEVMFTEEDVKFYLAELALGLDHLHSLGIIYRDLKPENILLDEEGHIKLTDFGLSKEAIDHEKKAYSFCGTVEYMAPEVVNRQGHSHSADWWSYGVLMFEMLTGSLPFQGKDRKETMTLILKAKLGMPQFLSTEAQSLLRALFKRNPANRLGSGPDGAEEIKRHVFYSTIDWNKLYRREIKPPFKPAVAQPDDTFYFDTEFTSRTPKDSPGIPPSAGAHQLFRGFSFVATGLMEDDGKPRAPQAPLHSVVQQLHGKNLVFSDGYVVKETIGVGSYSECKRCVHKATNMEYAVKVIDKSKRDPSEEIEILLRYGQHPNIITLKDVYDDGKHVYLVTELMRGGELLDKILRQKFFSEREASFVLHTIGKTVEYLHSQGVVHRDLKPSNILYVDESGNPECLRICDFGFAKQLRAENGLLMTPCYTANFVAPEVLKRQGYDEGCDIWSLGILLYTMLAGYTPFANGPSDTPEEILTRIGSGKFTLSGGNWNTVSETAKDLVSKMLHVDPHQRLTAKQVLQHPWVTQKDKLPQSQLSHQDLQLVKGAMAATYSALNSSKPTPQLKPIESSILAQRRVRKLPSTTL
Sequence of TGF-beta receptor type-1 (P36897 whole entry): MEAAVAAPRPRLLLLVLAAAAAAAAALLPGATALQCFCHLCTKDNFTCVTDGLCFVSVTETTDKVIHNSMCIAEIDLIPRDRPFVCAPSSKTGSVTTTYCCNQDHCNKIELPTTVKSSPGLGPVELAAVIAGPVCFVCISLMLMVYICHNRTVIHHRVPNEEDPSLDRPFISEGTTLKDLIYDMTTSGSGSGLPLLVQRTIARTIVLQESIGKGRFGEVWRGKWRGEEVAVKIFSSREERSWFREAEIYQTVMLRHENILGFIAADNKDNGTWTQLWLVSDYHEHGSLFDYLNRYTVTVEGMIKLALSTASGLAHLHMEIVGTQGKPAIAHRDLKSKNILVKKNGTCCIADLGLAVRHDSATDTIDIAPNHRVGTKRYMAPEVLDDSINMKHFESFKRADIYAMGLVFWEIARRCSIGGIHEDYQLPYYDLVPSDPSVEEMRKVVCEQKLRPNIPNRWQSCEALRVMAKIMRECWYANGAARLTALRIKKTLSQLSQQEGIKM
Sequence of Activin receptor type-1B (P36896 whole entry, the tested form may be a part): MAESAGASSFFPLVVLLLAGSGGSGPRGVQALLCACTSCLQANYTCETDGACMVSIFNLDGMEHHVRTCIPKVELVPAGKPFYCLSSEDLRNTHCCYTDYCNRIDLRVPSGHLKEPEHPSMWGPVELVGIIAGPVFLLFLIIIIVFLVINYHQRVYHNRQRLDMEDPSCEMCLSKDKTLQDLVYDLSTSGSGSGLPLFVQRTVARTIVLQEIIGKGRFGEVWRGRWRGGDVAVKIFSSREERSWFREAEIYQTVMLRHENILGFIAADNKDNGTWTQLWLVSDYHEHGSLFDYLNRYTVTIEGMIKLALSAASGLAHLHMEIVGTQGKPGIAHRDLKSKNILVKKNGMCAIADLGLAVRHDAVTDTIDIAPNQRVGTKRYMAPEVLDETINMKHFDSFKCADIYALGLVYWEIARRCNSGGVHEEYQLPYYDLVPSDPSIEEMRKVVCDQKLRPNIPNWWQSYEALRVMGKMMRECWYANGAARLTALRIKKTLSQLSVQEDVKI

`O=C(NCCCC1CCCCC1)c1ccc(CNC(=O)c2cnn(-c3ccccc3)c2C(F)(F)F)cc1` [SR-321] showed a pIC50 [1] of under 5.00 and a pIC50 [2] of under 5.00.

With `O=C(NCCN1CCOCC1)c1ccc2c(c1)C(=O)c1ccc(Nc3ccc(F)c(NC(=O)c4ccccc4)c3)cc1CC2` [FS-694] the pIC50 [3] was 7.42.

`CC(C)(C)OC(=O)N1CCCC1CNC1CCC(c2cc(F)ccc2F)(S(=O)(=O)c2ccc(Cl)cc2)CC1` (stereo unspecified) [GSI-NC] showed a pIC50 (Presenilin-1 [4]) of 5.80.

In the case of `O=C(O)c1ccc(-c2coc3ncc(-c4ccccc4)cc23)cc1Cl`, the pIC50 [5] was under 5.00.

For `c1ccc2oc(-c3csc(C4CCN(Cc5nc6ncccc6[nH]5)CC4)n3)cc2c1`, the pIC50 [6] was 7.48.

With `Cc1cccc(-c2cnc3occ(-c4ccc(C(=O)O)c(C5CCCC5)c4)c3c2)c1` the pIC50 [7] was 5.80.

`O=C1CCc2cc(Nc3cc(OC4CCOCC4)c([N+](=O)[O-])cc3Cl)ccc2N1` showed a pIC50 [8] of 6.14.

Molecule `Cc1cnc(-c2cc(Cl)ccc2F)cc1-n1c(=O)n(CC(N)=O)c2ccccc21` [Al11] has a pEC50 (TGF-beta receptor type-1) of under 5.00 and a pEC50 (Activin receptor type-1B) of under 5.00.

`COc1cc(-c2cn([C@H]3CCc4ccccc4N(CC(F)(F)F)C3=O)nn2)ccc1-n1ccc(C)n1` gave a pIC50 (Presenilin-1 [9]) of under 5.00.

`O=S(=O)(NC1CCC(c2cc(F)ccc2F)(S(=O)(=O)c2ccc(Cl)cc2)CC1)C(F)(F)F` (stereo unspecified) [MRK-560] showed a pIC50 (Presenilin-1 [10]) of over 9.30.

In the case of `CC1=C(C#N)C(c2ccc3c(c2)c(NC(=O)c2ccccc2C)nn3C)C(C#N)=C(C)N1` [BAY-974], the pIC50 [11] was under 4.52 and the pIC50 [12] was under 4.52.

`O=C1c2ccc(Nc3ccc(F)cc3F)cc2CCc2ccc(OC[C@H](O)CO)cc21` [Skepinone-L] gave a pIC50 [13] of 7.60.

`Cc1nc(N2CC[C@H](O)C2)ncc1-c1cc(C(F)(F)F)cc2[nH]ncc12` showed a pEC50 [14] of 7.82.
